Reference: ChEMBL document CHEMBL6083193, “Advancing drug discovery: Thiadiazole derivatives as multifaceted agents in medicinal chemistry and pharmacology” (Bioorg Med Chem, 2024)
Values after ≈ are worked out from the molar mass of the structure shown. Blank lines part the entries; values can stand above or below the molecule they belong to.

Assays:
[1] = test system: Toxoplasma gondii; experiment: Antiparasitic activity against Toxoplasma gondii RH infected in human HFF cells; format: functional, organism-based
[2] = test system: MCF7; experiment: Cytotoxicity against human MCF7 cells assessed as reduction in cell viability by MTT assay; format: functional, cell-based
[3] = test system: COLO 205; experiment: Anticancer activity against human COLO 205 cells by MTT assay; format: functional, cell-based
[4] = test system: MCF7; experiment: Anticancer activity against human MCF7 cells by MTT assay; format: functional, cell-based
[5] = test system: A2780; experiment: Cytotoxicity against human A2780 cells assessed as reduction in cell viability by MTT assay; format: functional, cell-based
[6] = test system: COLO 205; experiment: Cytotoxicity against human COLO 205 cells assessed as reduction in cell viability by MTT assay; format: functional, cell-based
[7] = test system: A2780; experiment: Anticancer activity against human A2780 cells by MTT assay; format: functional, cell-based
[8] = test system: A549; experiment: Cytotoxicity against human A549 cells assessed as reduction in cell viability by MTT assay; format: functional, cell-based
[9] = test system: A549; experiment: Anticancer activity against human A549 cells by MTT assay; format: functional, cell-based
[10] = Antioxidant activity assessed as DPPH radical scavenging activity measured for 30 mins by spectrophotometric analysis; format: functional
[11] = test system: A549; experiment: Cytotoxicity against human A549 cells assessed as reduction in cell growth; format: functional, cell-based
[12] = test system: A549; experiment: Cytotoxicity against human A549 cells assessed as reduction in cell viability incubated for 24 hrs by MTT assay; format: functional, cell-based; conditions: A549, 24 h
[13] = test system: A549; experiment: Cytotoxicity against human A549 cells by MTT assay; format: functional, cell-based
[14] = test system: MCF7; experiment: Cytotoxicity against human MCF7 cells assessed as reduction in cell viability incubated for 24 hrs by MTT assay; format: functional, cell-based; conditions: MCF7, 24 h
[15] = molecular target: Epidermal growth factor receptor (Homo sapiens, UniProt P00533); experiment: Inhibition of EGFR (unknown origin)
[16] = Inhibition of alpha amylase (unknown origin) using starch as substrate pre-incubated for 30 mins followed by substrate addition and measured after 30 mins by absorbance based analysis; set-up: species or system Homo sapiens
[17] = test system: Trypanosoma brucei; experiment: Antiparasitic activity against blood stream form Trypanosoma brucei assessed as parasitic growth inhibition at 10 uM by resazurin dye based fluorescence analysis relative to control; format: functional; set-up: scale not given: the % may be the effect or the level left
[18] = test system: A2780; experiment: Cytotoxicity against human A2780 cells assessed as reduction in cell viability incubated for 72 hrs by CCK-8 assay; format: functional, cell-based; conditions: A2780, 72 h
[19] = test system: A2780; experiment: Cytotoxicity against human A2780 cells assessed as increase in LDH activity; format: functional, cell-based
[20] = test system: A2780; experiment: Induction of apoptosis in human A2780 cells assessed as caspase3/7 activation; format: functional, cell-based
[21] = test system: Mus musculus; experiment: Antiinflammatory activity against carrageenan-induced paw edema in Swiss mouse assessed as reduction in paw edema at 15 mg/kg, po relative to control; format: functional; set-up: scale not given: the % may be the effect or the level left

Chain of Epidermal growth factor receptor (P00533 whole entry): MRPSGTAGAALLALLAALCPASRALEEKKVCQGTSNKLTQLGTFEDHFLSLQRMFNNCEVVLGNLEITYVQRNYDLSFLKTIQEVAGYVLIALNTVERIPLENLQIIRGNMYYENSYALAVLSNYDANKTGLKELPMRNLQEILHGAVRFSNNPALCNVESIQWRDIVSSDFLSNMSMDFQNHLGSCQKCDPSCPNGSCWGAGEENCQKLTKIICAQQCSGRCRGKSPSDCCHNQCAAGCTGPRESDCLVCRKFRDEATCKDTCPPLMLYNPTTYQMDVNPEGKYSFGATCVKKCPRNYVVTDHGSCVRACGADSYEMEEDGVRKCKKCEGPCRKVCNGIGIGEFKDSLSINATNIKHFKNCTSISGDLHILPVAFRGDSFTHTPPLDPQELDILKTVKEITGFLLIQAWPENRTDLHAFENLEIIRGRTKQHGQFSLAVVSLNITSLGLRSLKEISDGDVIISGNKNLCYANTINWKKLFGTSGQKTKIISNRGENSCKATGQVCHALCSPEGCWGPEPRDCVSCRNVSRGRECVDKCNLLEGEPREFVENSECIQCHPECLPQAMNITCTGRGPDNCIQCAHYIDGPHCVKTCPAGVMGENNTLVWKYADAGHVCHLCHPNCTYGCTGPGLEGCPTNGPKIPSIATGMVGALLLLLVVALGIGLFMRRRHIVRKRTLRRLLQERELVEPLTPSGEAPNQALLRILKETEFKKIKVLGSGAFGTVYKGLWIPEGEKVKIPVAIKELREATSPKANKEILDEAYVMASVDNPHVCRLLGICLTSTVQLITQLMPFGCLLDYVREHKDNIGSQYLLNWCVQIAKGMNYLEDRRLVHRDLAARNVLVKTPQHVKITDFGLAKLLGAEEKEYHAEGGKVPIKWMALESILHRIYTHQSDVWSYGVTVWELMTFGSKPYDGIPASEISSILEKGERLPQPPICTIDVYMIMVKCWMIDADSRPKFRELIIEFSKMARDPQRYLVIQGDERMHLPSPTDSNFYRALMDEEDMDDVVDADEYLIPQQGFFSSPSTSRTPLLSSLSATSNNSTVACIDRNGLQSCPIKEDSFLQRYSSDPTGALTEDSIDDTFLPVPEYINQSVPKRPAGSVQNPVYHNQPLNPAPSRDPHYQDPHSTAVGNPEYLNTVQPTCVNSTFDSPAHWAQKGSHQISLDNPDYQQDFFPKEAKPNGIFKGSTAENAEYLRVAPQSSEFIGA

SMILES: Cc1[nH]cnc1-c1nnc(Nc2ccc(Cl)cc2)s1
IC50 [1]: 4.7 µg/mL (≈ 16.1 µM)

SMILES: Cc1[nH]cnc1-c1nnc(Nc2ccc(F)cc2)s1
IC50 [1]: 4.7 µg/mL (≈ 17.1 µM)

SMILES: Cc1nc[nH]c1-c1nnc(Nc2ccccc2Cl)s1
IC50 [1]: 4.7 µg/mL (≈ 16.1 µM)

SMILES: CCNc1nnc(SCC(=O)N2N=C(c3ccccc3)CC2c2ccc([N+](=O)[O-])cc2)s1 (stereo not drawn)
IC50 [11]: 10000 nM

SMILES: Cc1nc[nH]c1-c1nnc(Nc2ccc(I)cc2)s1
IC50 [1]: 4.7 µg/mL (≈ 12.3 µM)

SMILES: Cc1nc[nH]c1-c1nnc(Nc2cccc(Br)c2)s1
IC50 [1]: 4.7 µg/mL (≈ 14 µM)

SMILES: Cc1nc[nH]c1-c1nnc(Nc2ccccc2I)s1
IC50 [1]: 4.7 µg/mL (≈ 12.3 µM)

SMILES: CCCNc1nnc(SCC(=O)N2N=C(c3ccccc3)CC2c2ccc([N+](=O)[O-])cc2)s1 (stereo not drawn)
IC50 [11]: 10000 nM

SMILES: Cc1nc[nH]c1-c1nnc(Nc2ccccc2F)s1
Activity [17]: 64.81%

SMILES: COc1ccc(Nc2nnc(SCC(=O)N3N=C(c4ccccc4)CC3c3ccc([N+](=O)[O-])cc3)s2)cc1 (stereo not drawn)
IC50 [11]: 10000 nM

SMILES: Cc1nc[nH]c1-c1nnc(Nc2ccc(Br)cc2)s1
IC50 [1]: 4.7 µg/mL (≈ 14 µM)

SMILES: Cc1ccc(Nc2nnc(SCC(=O)N3N=C(c4ccccc4)CC3c3ccc([N+](=O)[O-])cc3)s2)cc1 (stereo not drawn)
IC50 [11]: 10000 nM

SMILES: O=C(CSc1nnc(Nc2ccc(Cl)cc2)s1)N1N=C(c2ccccc2)CC1c1ccc([N+](=O)[O-])cc1 (stereo not drawn)
IC50 [12]: 8490 nM | IC50 [13]: 11900 nM | IC50 [14]: 67200 nM | IC50 [11]: 10000 nM

SMILES: Cc1nc[nH]c1-c1nnc(Nc2ccccc2Br)s1
IC50 [1]: 4.7 µg/mL (≈ 14 µM)

SMILES: Cc1nc[nH]c1-c1nnc(Nc2cccc(F)c2)s1
IC50 [1]: 4.7 µg/mL (≈ 17.1 µM)

SMILES: CC(C)Nc1nnc(SCC(=O)N2N=C(c3ccccc3)CC2c2ccc([N+](=O)[O-])cc2)s1 (stereo not drawn)
IC50 [11]: 10000 nM

SMILES: CCCCNc1nnc(SCC(=O)N2N=C(c3ccccc3)CC2c2ccc([N+](=O)[O-])cc2)s1 (stereo not drawn)
IC50 [11]: 10000 nM

SMILES: Cc1nc[nH]c1-c1nnc(Nc2cccc(Cl)c2)s1
IC50 [1]: 4.7 µg/mL (≈ 16.1 µM)

SMILES: COc1cccc(/C=C2\S/C(=N/c3nnc(C45CC6CC(CC(C6)C4)C5)s3)NC2=O)c1
Activity [21]: 66.7%

SMILES: CNc1nnc(CCCSc2nnc(SCCCc3nnc(NC)s3)s2)s1
Activity [17]: 65.3%

SMILES: Cc1nc[nH]c1-c1nnc(Nc2cccc(I)c2)s1
IC50 [1]: 4.7 µg/mL (≈ 12.3 µM)

SMILES: C=CCNc1nnc(SCC(=O)N2N=C(c3ccccc3)CC2c2ccc([N+](=O)[O-])cc2)s1 (stereo not drawn)
IC50 [12]: 5180 nM | IC50 [14]: 35700 nM | IC50 [11]: 10000 nM

SMILES: O=C(CSc1nnc(NC2CCCCC2)s1)N1N=C(c2ccccc2)CC1c1ccc([N+](=O)[O-])cc1 (stereo not drawn)
IC50 [11]: 10000 nM

SMILES: c1ccc(Nc2nnc(CCCSc3nnc(CCCSc4nnc(Nc5ccccc5)s4)s3)s2)cc1
Activity [17]: 82.6%

Further lines, with some results ahead:

IC50 [3]: 110 nM | IC50 [4]: 110 nM | IC50 [7]: 110 nM | IC50 [9]: 110 nM
SMILES: COc1ccc(NC(=O)c2ccc(-c3nsc(-c4csc(-c5ccncc5)n4)n3)cc2)cc1
IC50 [2]: 340 nM | IC50 [5]: 140 nM | IC50 [6]: 120 nM | IC50 [8]: 110 nM

IC50 [10]: 37.25 µg/mL (≈ 137 µM)
SMILES: N#C/C(=N\Nc1ccccc1)C(=O)Nc1nncs1

IC50 [3]: 110 nM | IC50 [4]: 110 nM | IC50 [7]: 110 nM | IC50 [9]: 110 nM
SMILES: COc1cc(NC(=O)c2ccc(-c3nsc(-c4csc(-c5ccncc5)n4)n3)cc2)cc(OC)c1OC
IC50 [2]: 340 nM | IC50 [5]: 140 nM | IC50 [6]: 120 nM | IC50 [8]: 110 nM

IC50 [15]: 2 nM
SMILES: O=C(CSc1nnc(Nc2ccccc2)s1)N1N=C(c2ccccc2)CC1c1ccc([N+](=O)[O-])cc1 (stereo not drawn)
IC50 [12]: 1540 nM | IC50 [13]: 48300 nM | IC50 [14]: 15900 nM | IC50 [11]: 10000 nM

IC50 [16]: 36100 nM
SMILES: O=C(NC1=NN2C(=O)/C(=C/C3CCCO3)N=C2S1)c1cccs1 (stereo not drawn)

IC50 [3]: 110 nM | IC50 [4]: 110 nM | IC50 [7]: 110 nM | IC50 [9]: 110 nM
SMILES: O=C(Nc1cc([N+](=O)[O-])cc([N+](=O)[O-])c1)c1ccc(-c2nsc(-c3csc(-c4ccncc4)n3)n2)cc1

IC50 [3]: 110 nM | IC50 [4]: 110 nM | IC50 [7]: 110 nM | IC50 [9]: 110 nM
SMILES: Cc1ccc(NC(=O)c2ccc(-c3nsc(-c4csc(-c5ccncc5)n4)n3)cc2)cc1
IC50 [2]: 340 nM | IC50 [5]: 140 nM | IC50 [6]: 120 nM | IC50 [8]: 110 nM

IC50 [4]: 110 nM | IC50 [20]: 1000 nM
SMILES: O=C1C[C@H](n2ccsc2=S)[C@H]2CO[C@@H]1O2
IC50 [18]: 47800 nM | IC50 [19]: 62000 nM

IC50 [10]: 22.63 µg/mL (≈ 44.5 µM)
SMILES: O=C1N/C(=N/c2nn(-c3ccccc3)nc2C(=O)Nc2nncs2)S/C1=C\c1ccc(Cl)cc1

IC50 [3]: 110 nM | IC50 [4]: 110 nM | IC50 [7]: 110 nM | IC50 [9]: 110 nM
SMILES: COc1cc(NC(=O)c2ccc(-c3nsc(-c4csc(-c5ccncc5)n4)n3)cc2)cc(OC)c1
IC50 [2]: 340 nM | IC50 [5]: 140 nM | IC50 [6]: 120 nM | IC50 [8]: 110 nM

IC50 [3]: 110 nM | IC50 [4]: 110 nM | IC50 [7]: 110 nM | IC50 [9]: 110 nM
SMILES: Cc1cc(C)cc(NC(=O)c2ccc(-c3nsc(-c4csc(-c5ccncc5)n4)n3)cc2)c1

IC50 [16]: 36100 nM
SMILES: O=C(CCl)Nc1nnc(NC(=O)c2cccs2)s1

IC50 [20]: 15000 nM
SMILES: Nc1nsc(=S)n1[C@H]1CC(=O)[C@@H]2OC[C@H]1O2
IC50 [18]: 50200 nM | IC50 [19]: 23800 nM

IC50 [10]: 22.63 µg/mL (≈ 46.3 µM)
SMILES: Cc1ccc(/C=C2\S/C(=N\c3nn(-c4ccccc4)nc3C(=O)Nc3nncs3)NC2=O)cc1

IC50 [10]: 22.63 µg/mL (≈ 62.2 µM)
SMILES: O=C(CCl)Nc1nn(-c2ccccc2)nc1C(=O)Nc1nncs1

IC50 [3]: 110 nM | IC50 [4]: 110 nM | IC50 [7]: 110 nM | IC50 [9]: 110 nM
SMILES: O=C(Nc1ccc(Cl)cc1)c1ccc(-c2nsc(-c3csc(-c4ccncc4)n3)n2)cc1

IC50 [10]: 44.35 µg/mL (≈ 115 µM)
SMILES: O=C1CS/C(=N\c2nn(-c3ccccc3)nc2C(=O)Nc2nncs2)N1

IC50 [16]: 36100 nM
SMILES: O=C(NC1=NN2C(=O)CN=C2S1)c1cccs1

IC50 [10]: 22.63 µg/mL (≈ 44.9 µM)
SMILES: COc1ccc(/C=C2\S/C(=N\c3nn(-c4ccccc4)nc3C(=O)Nc3nncs3)NC2=O)cc1

IC50 [3]: 110 nM | IC50 [4]: 110 nM | IC50 [7]: 110 nM | IC50 [9]: 110 nM
SMILES: O=C(Nc1ccc([N+](=O)[O-])cc1)c1ccc(-c2nsc(-c3csc(-c4ccncc4)n3)n2)cc1

IC50 [3]: 110 nM | IC50 [4]: 110 nM | IC50 [7]: 110 nM | IC50 [9]: 110 nM
SMILES: O=C(Nc1ccc(Br)cc1)c1ccc(-c2nsc(-c3csc(-c4ccncc4)n3)n2)cc1

IC50 [10]: 39.27 µg/mL (≈ 137 µM)
SMILES: Nc1nn(-c2ccccc2)nc1C(=O)Nc1nncs1

IC50 [3]: 110 nM | IC50 [4]: 110 nM | IC50 [7]: 110 nM | IC50 [9]: 110 nM
SMILES: N#Cc1ccc(NC(=O)c2ccc(-c3nsc(-c4csc(-c5ccncc5)n4)n3)cc2)cc1

IC50 [16]: 36100 nM
SMILES: N=c1cc(N)nc2sc(NC(=O)c3cccs3)nn12
